Reference: patent publication US20230075521A1, “RESVERATROL PHARMACEUTICAL COMPOSITIONS AND METHODS OF USE THEREOF” (priority 2021, published 2023)

Tests used:
[1] = Mouse PK study, resveratrol in brain; format: in vivo, CD-1 mice; details: male mice, single dose 50 mg/kg oral, 30 min
Procedure: For mouse PK studies, male CD-1 mice (Charles River Canada) were used. Animals were food fasted for 4 h prior to dosing and water fasted 1 h prior to dosing. […] At each time point (15 min, 30 min, 1 h, 4 h) 3 mice of each group were terminally bled via cardiac puncture under red light. Blood was collected into sodium-EDTA tubes under red light and spun at […] for 10 min at 6800×g. Plasma was collected and split into amber tubes. Both left and right brain were collected and snap-frozen in liquid nitrogen and stored at […] Drug concentrations were analyzed by liquid chromatography-mass spectrometry (LC-MS/MS) by KDM Laboratories Inc. For rat PK studies, male Sprague-Dawley rats (Charles River Canada) were used. […] Blood was collected under red light from the trunk at 30 min into K3EDTA tubes and centrifuged immediately at 4° C. for 10 min at 6800×g, and plasma collected into amber tubes. Brains were collected and snap-frozen in liquid nitrogen and stored at […] Drug concentration was analyzed by LC-MS/MS.

[2] = tested on: 3×Tg-AD mice; test: Behavior battery, long-term prophylactic treatment; format: in vivo, mouse; details: 50 mg/kg oral, at 6 or 10 months of age
Procedure: For long-term prophylactic studies, a cohort of 30 mice was used (50% males and females). […] JOTROL™ and RSV were prepared under red light and administered using a red syringe and metal gavage to prevent light exposure. Mice were treated 5 days a week for 9 months beginning at 4 months of age (prior to disease development). As detailed below, a battery of behavioral tests was conducted, including Y-maze spontaneous alternation, open field, rotarod, novel object recognition, Barnes maze, and object location memory. A battery of behavior tests designed to test motor coordination skills, anxiety, spatial learning and reference memory was performed on all long-term-treated mice. Motor coordination was evaluated using rotarod. Anxiety was evaluated by open field and elevated 0-maze tests. […] Motor coordination was assessed by the latency to fall on the very first trial between treatment groups. Motor learning was measured both within and between sub-jects by comparing the first trial with subsequent trials and is evident as an increased latency to fall over time. […] Distance, velocity, and time in center versus periphery were recorded and analyzed. Anxiety-related behavior can be determined by the duration spent in the center of the field versus the periphery. […] Total arm entries and percent of spontaneous alternations were recorded. […]

For Oc1ccc(/C=C/c2cc(O)cc(O)c2)cc1 [RSV, (trans-)resveratrol], which “Resveratrol accumulation in the brain” value [1] is on record?
Its value is “not detected in the brain”.

What about the “Y-maze spontaneous alternation performance” value [2] of the same compound?
The value was “No significant group differences”.
